Type in all cases: cell-based
The subject of test [1] is HIV-1/LAI strain selected with NFV (3000 nM, 69 days), protease L10F D30N M46I V77I I85V/I N88D/N. Description: In vitro antiviral activity in acutely infected MT4 cells, selected strain. As to conditions: for EC50: Human immunodeficiency virus 1, Table 5, strain L10F D30N M46I V77I I85V/I N88D/N (NFV 3000 nM, 69 days), read-out: median EC50; for median FC (fold change in EC50 as compared to wild type): Table 5, strain L10F D30N M46I V77I I85V/I N88D/N (NFV 3000 nM, 69 days). In short, it runs like this:
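MT4 cells were infected with 200-250 CCID50 per well of the selected HIV-1 strain (30,000 cells/well) in the presence of compound dilutions and incubated 5 days at 37° C, 5% CO2. Cytopathic effect was read by MTT colorimetry; EC50 and EC90 are the doses giving 50% and 90% protection.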

Test [2] deals with HIV-1/LAI strain selected with Compound 1 (100 nM, 97 days), protease R41T K70E. The description is as above. As to conditions: for EC50: Human immunodeficiency virus 1, Table 1, strain R41T K70E (Compound 1 100 nM, 97 days), read-out: median EC50; for median FC (fold change in EC50 as compared to wild type): Table 1, strain R41T K70E (Compound 1 100 nM, 97 days). The protocol: (§1) Determination of the antiviral activity of a compound was done as described in Pauwels R. et al. (J Virol Methods 1988; 20(4):309-21). Various concentrations of the test compounds were brought into each well of a flat-bottom microtiter plate. Subsequently, HIV and MT4 cells were added to a final concentration of 200-250 50% cell culture infectious doses (CCID50)/well and 30,000 cells/well, respectively. After 5 days of incubation (37° C., 5% CO2), the cytopathic effect of the replicating virus was determined by the tetrazolium colorimetric MTT method. The dose protecting 50% of the cells from virus cytopathic effect was defined as the EC50, while the dose achieving 90% protection was defined as the EC90.
(§2) MT4-LTR-EGFP cells were infected at a multiplicity of infection (MOI) of 0.01 to 0.001 CCID50/cell in the presence of inhibitor. The starting concentration of the inhibitor was two to tee times the EC50, a suboptimal concentration. The cultures were sub-cultivated and scored microscopically on virus-induced fluorescence and cytopathicity every 3-4 days. […] The escaping virus was further cultivated in the presence of the same inhibitor concentration in order to enrich the population in resistant variants. If full virus breakthrough was observed the supernatant was collected and stored (new virus strain). […] From the new viruses, a virus stock was grown in the absence of inhibitor.

The subject of test [3] is HIV-1/LAI strain selected with Compound 2 (100 nM), protease R41I. The test is described as above. As to conditions: Human immunodeficiency virus 1, Table 3, R41I strain selected with Compound 2 100 nM (head lists 116, 200, 264 days; assignment unclear), read-out: median EC50. On the procedure:
as §1, §2

The test system of the next test is HIV-1/LAI. Nature of the test: In vitro antiviral activity in acutely infected MT4 cells, wild type. As to conditions: read-out: median EC50. On the procedure:
as §1
MT4-LTR-EGFP cells were infected at a multiplicity of infection (MOI) of 0.01 to 0.001 CCID50/cell in the presence of inhibitor. The starting concentration of the inhibitor was two to tee times the EC50, a suboptimal concentration. The cultures were sub-cultivated and scored microscopically on virus-induced fluorescence and cytopathicity every 3-4 days. The cultures were sub-cultivated in the presence of the same compound concentration until signs of virus replication were observed. The escaping virus was further cultivated in the presence of the same inhibitor concentration in order to enrich the population in resistant variants. If full virus breakthrough was observed the supernatant was collected and stored (new virus strain). Afterwards, the same virus was challenged with a higher compound concentration in order to select variants able to grow in the presence of as high as possible inhibitor concentrations. From the new viruses, a virus stock was grown in the absence of inhibitor.
In vitro drug selection experiments starting from wild-type HIV-1 under pressure of compound 1, compound 2, and Nelfinavir (NFV) have been performed. Tables 1, 2, 3, 4, and 5 show the genotypic and phenotypic characterization of the selected strains.

[4] abbreviates: Human immunodeficiency virus 1, MT4, Table 1, wild-type HIV/LAI.
[5] abbreviates: Human immunodeficiency virus 1, MT4, Table 2, wild-type HIV-1/LAI.
Where [6] appears, read: Human immunodeficiency virus 1, MT4, Table 3, wild-type HIV-1/LAI.
Setting [7] is: Human immunodeficiency virus 1, MT4, Table 4, wild-type HIV-1/LAI.
Setting [8] is: Human immunodeficiency virus 1, MT4, Table 5, wild-type HIV-1/LAI.

The structures appear in SMILES notation. Like-named read-outs stand apart in the source and are kept apart here.

The term EC50 denotes the concentration giving half of the maximal effect.

As to `CC(C)CN(C[C@@H](O)[C@H](Cc1ccccc1)NC(=O)O[C@H]1CCOC1)S(=O)(=O)c1ccc(N)cc1` [Amprenavir], the EC50 in test [1] is 0.059 µM; in test [2] it was 0.029 µM; in test [3] it was 0.0084 µM; in the test with HIV-1/LAI (setting [4]), 0.036 µM; in the test on HIV-1/LAI (setting [5]), 0.02 µM; with HIV-1/LAI (setting [6]) it was 0.02 µM. Also, the EC50 with HIV-1/LAI (setting [7]) and in the test with HIV-1/LAI (setting [8]) was 0.02 µM each time. For the same compound, the “median FC (fold change in EC50 as compared to wild type)” value in test [1] worked out at 3; in test [2], 1.
For `CC(C)(C)NC(=O)[C@@H]1CN(Cc2cccnc2)CCN1C[C@@H](O)C[C@@H](Cc1ccccc1)C(=O)N[C@H]1c2ccccc2C[C@H]1O` [Indinavir], the EC50 is 0.098 µM in test [2]; 0.047 µM in test [3]; 0.028 µM with HIV-1/LAI (setting [4]); 0.012 µM in the test on HIV-1/LAI (setting [5]); 0.012 µM in the test on HIV-1/LAI (setting [6]); 0.012 µM in the test on HIV-1/LAI (setting [7]). Moreover, the EC50 in the test with HIV-1/LAI (setting [8]) was 0.012 µM. Further, the “median FC (fold change in EC50 as compared to wild type)” value in test [2] turned out to be 4.
For the compound `Cc1c(O)cccc1C(=O)N[C@@H](CSc1ccccc1)[C@H](O)CN1C[C@H]2CCCC[C@H]2C[C@H]1C(=O)NC(C)(C)C` [Nelfinavir], the EC50 in test [2] was found to be 0.018 µM; in test [3], 0.014 µM; with HIV-1/LAI (setting [4]), 0.03 µM; in the test on HIV-1/LAI (setting [5]), 0.038 µM; in the test with HIV-1/LAI (setting [6]), 0.038 µM; in the test with HIV-1/LAI (setting [7]), 0.038 µM. Moreover, in the test with HIV-1/LAI (setting [8]), the EC50 was 0.038 µM. Besides, the “median FC (fold change in EC50 as compared to wild type)” value in test [2] stood at 1.
Regarding `CC(C)(C)NC(=O)[C@@H]1C[C@@H]2CCCC[C@@H]2CN1C[C@@H](O)[C@H](Cc1ccccc1)NC(=O)[C@H](CC(N)=O)NC(=O)c1ccc2ccccc2n1` [Saquinavir], the EC50 in test [1] came to 0.0025 µM; in test [2], 0.035 µM; in test [3], 0.045 µM; in the test with HIV-1/LAI (setting [4]), 0.0078 µM; in the test on HIV-1/LAI (setting [5]), 0.0056 µM; in the test with HIV-1/LAI (setting [6]), 0.0056 µM. For the same compound, the EC50 in the test on HIV-1/LAI (setting [7]) and in the test on HIV-1/LAI (setting [8]) was 0.0056 µM throughout. Also, the “median FC (fold change in EC50 as compared to wild type)” value in test [1] was 0; in test [2], 4.

The record behind these values is patent US8592161B2, “Mutational profiles in HIV-1 protease correlated with phenotypic drug resistance” (Janssen R&D Ireland, priority 2002, dated 2013).
